Reference: PMC11480511 (Scientific Reports, 2024)
Values joined by “and” are separate entries in the source; they are usually repeats but may differ in a detail not shown here. Equal values may be shown once.

How the values were obtained:
[1] = tested on: melanoma LOX IMVI cell line; assay: Cell cycle analysis, propidium iodide flow cytometry; assay type: cell-based, human
Method: The effect of compound 3i on cell cycle progression of LOX IMVI cell line was evaluated using Propidium Iodide Flow Cytometry Kit to measure the DNA content according to the reported protocols. The LOX IMVI cells used in this work were obtained from the American Type Culture Collection. Cells were cultured in DMEM (Invitrogen/Life Technologies) supplemented with 10% FBS (Hyclone), 10 µg/ml insulin (Sigma), and 1% penicillin-streptomycin. The remaining chemicals and reagents were all from Sigma or Invitrogen. Growth media was removed, cells washed with warm PBS and aspirated. Adhered cells were detached from media by addition of 5 ml 10% trypsin/EDTA and incubated 2 min in the incubator. The suspended cells harvested, aspirated to a falcon tube, centrifuged at 2000 rpm for 5 min. Cell count performed after suspending the cells into a fresh media and stained with trypan blue, counted and used for preparation of the appropriate number of cells.

topoisomerase IIβ = target: T1, topoisomerase IIβ (Homo sapiens, UniProt Q02880); assay: Topoisomerase II inhibition, human DNA topoisomerase Elisa kit; assay type: biochemical; details: ± SEM; read-out: Topoisomerase II IC50 µM ± SEM
T1 construct: purchased
T1 sequence (Q02880 whole entry): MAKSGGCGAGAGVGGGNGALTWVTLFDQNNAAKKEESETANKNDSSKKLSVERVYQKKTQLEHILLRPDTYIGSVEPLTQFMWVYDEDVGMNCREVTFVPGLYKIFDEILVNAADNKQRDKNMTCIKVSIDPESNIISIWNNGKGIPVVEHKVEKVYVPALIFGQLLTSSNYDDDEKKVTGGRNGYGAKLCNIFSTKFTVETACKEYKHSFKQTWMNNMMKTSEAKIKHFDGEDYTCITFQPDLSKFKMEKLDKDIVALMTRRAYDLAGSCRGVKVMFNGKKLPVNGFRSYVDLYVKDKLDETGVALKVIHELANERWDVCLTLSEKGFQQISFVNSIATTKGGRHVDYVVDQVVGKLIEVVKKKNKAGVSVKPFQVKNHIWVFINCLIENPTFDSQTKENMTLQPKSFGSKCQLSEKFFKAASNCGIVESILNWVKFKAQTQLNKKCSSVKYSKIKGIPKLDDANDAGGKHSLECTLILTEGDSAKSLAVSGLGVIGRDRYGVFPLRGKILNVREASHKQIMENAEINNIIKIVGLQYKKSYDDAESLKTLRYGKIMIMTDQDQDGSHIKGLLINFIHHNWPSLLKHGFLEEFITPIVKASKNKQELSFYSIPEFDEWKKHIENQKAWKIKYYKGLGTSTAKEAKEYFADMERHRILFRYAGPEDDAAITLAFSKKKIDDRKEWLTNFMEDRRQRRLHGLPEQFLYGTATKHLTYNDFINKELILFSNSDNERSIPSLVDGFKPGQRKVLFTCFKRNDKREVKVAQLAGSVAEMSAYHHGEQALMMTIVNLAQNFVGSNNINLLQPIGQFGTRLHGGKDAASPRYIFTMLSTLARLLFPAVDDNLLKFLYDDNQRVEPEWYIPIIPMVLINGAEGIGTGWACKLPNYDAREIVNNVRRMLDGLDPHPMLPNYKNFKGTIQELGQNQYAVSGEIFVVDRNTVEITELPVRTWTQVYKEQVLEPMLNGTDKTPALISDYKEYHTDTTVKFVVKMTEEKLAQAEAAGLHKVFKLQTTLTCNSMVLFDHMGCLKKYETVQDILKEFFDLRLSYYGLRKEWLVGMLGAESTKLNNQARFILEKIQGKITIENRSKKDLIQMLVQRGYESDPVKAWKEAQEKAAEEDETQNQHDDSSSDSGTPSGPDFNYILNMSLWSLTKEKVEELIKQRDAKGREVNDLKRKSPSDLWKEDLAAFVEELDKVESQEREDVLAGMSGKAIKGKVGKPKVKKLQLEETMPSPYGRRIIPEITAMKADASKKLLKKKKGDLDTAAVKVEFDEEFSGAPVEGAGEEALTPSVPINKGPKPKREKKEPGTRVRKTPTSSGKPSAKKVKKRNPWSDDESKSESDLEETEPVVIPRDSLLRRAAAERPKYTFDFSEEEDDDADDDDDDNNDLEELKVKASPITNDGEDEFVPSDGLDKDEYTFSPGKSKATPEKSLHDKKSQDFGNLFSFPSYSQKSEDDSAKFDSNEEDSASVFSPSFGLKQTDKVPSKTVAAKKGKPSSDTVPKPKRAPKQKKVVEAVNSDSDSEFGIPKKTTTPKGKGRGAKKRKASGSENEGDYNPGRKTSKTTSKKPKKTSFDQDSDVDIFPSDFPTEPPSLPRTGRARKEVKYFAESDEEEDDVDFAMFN
Method: (§1) Two folds of serial dilution was accomplished after standards and the tested compounds were dissolved in sample diluent. Horseradish peroxidase (HRP-avidin) and biotin-conjugated antibody were diluted 10 times each. Each well received 100 µL of each concentration of the standard or test chemicals, which were then added and incubated at 37 °C for 60 min. […] The microtiter plate was rinsed three times and given room to aspirate. After that, the plate was incubated at 37 °C for 60 min with 100 µL of HRP-avidin solution added to each well. After that, the plate was aspirated and cleaned 5 times. Each well received 90 µL of TMB substrate, and the plate was incubated for 30 min. at 37 °C in a light-protected environment. Finally, stop solution (50 µL) was loaded, and within 5 min, the absorbance at 450 nm was measured spectrophotometrically.
(§2) Topoisomerase enzyme assay
(§3) Topoisomerase I and II inhibitory activity […]
(§4) topoisomerase IIβ inhibitory activity utilizing the human DNA topoisomerase Elisa kit.
(§5) Standards and the tested compound were dissolved in sample diluent and 2 folds serial dilution was achieved. Biotin-conjugated antibody and avidin conjugated Horseradish Peroxidase (HRP-avidin) were diluted to 10 folds. 100 μL of each concentration of standard or test compound were added to each well. Incubate at 37 °C for 1 h. The liquid in each well was removed. 10 0 μL of Biotin-conjugated antibody solution was added to each well followed by incubation for 1 h at 37 °C. The microtiter plate was allowed to aspirate and washed 3 times. 100 μL of avidin conjugated Horseradish Peroxidase (HRP -avidin) solution was added to each well and the plate was incubated for 1 h at 37 °C. The plate was aspirated and washed 5 times. 90 μL of TMB substrate were added to each well and the plate was incubated for 30 min at 37 °C and protected from light. 50 μL stop so lution was added. The absorbance was measured spectrophotometrically within 5 min at 450 nm .

topoisomerase Iα = target: T2, topoisomerase Iα (Homo sapiens, UniProt P11387); assay: Topoisomerase I inhibition, human DNA topoisomerase Elisa kit; assay type: biochemical; details: ± SEM
T2 construct: purchased
T2 sequence (P11387 1-765): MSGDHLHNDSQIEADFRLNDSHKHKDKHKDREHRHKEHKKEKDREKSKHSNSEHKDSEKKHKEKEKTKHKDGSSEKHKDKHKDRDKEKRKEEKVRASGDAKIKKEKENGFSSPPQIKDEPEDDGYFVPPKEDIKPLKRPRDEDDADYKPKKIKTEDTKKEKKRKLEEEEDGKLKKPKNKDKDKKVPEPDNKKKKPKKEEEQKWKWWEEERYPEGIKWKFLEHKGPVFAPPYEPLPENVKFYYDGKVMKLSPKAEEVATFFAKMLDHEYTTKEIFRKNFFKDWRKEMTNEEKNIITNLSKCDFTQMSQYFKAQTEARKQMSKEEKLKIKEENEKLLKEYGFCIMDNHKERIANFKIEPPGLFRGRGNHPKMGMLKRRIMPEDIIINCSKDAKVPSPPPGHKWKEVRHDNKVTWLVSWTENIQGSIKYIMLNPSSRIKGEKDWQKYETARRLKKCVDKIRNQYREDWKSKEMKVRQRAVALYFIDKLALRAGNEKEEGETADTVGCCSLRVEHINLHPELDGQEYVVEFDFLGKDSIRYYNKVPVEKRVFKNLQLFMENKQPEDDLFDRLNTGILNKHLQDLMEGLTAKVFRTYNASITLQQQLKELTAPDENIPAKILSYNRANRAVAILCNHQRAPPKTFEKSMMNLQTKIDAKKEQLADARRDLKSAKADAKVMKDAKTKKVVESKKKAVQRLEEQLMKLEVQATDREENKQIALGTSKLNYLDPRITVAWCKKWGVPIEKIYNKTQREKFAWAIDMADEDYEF
Method: as §1, §2, §3, §4, §5

normal cell line WI 38 = assay: MTT cytotoxicity assay on normal cells; assay type: cell-based; details: Homo sapiens; normal cell line WI 38, MTT assay, ± SEM; read-out: IC50 W138 normal cell line (µM ± SEM)
Method: After 24 h of culture incubation and supernatants discarded. […] Each test should include a blank containing complete medium without cells. […] Add reconstituted MTT in an amount equal to 10% of the culture medium volume. […] Spectrophotometrically absorbance was measured at a wavelength of 570 nm. […] Results from all experiments were recorded and the percentage of viable cells was calculated.

[2] = LOX IMVI treated at IC50 concentration

SMILES	%G0-G1 DNA content [1, 2]	%G2/M DNA content [1, 2]	%Pre-G1 DNA content [1, 2]	%S DNA content [1, 2]	increase of percentage of cells at pre-G1 ([1]; LOX IMVI, versus control)	IC50 (topoisomerase IIβ)	IC50 (topoisomerase Iα)	IC50 (normal cell line WI 38)
O=C(O)c1cn(C2CC2)c2cc(N3CCN(C(=O)CCCN4C(=O)S/C(=C\c5ccc(F)cc5)C4=O)CC3)c(F)cc2c1=O [3i]	45.53%	9.41%	38.51%	45.06%	20 folds	15 ± 0.81 µM	4.8 µM and 4.77 µM	45.1 ± 2.43 µM
O=C(O)c1cn(C2CC2)c2cc(N3CCN(C(=O)CCCN4C(=O)CSC4=O)CC3)c(F)cc2c1=O [3 L, 1-Cyclopropyl-7-(4-(4-(2,4-dioxothiazolidin-3-yl)butanoyl)piperazin-1-yl)-6-fluoro-4-oxo-1,4-dihydroquinoline-3-carboxylic acid]						14.3 ± 0.78 µM	18.8 ± 1.02 µM	
O=C(O)c1cn(C2CC2)c2cc(N3CCN(C(=O)CCCN4C(=O)SC(=Cc5ccccc5)C4=O)CC3)c(F)cc2c1=O [3a, 7-[4-[4-[5-benzylidene-2,4-dioxo-thiazolidin-3-yl]butanoyl]piperazin-1-yl]-1-cyclopropyl-6-fluoro-4-oxo-quinoline-3-carboxylic acid]						35.6 ± 1.94 µM	14.5 ± 0.79 µM	
O=C(O)c1cn(C2CC2)c2cc(N3CCN(C(=O)CCCN4C(=O)S/C(=C\c5ccc([N+](=O)[O-])cc5)C4=O)CC3)c(F)cc2c1=O [3k]						18.7 ± 1.02 µM	36.6 ± 1.99 µM	
O=C(O)c1cn(C2CC2)c2cc(N3CCN(C(=O)CCCN4C(=O)SC(=Cc5cccc6ccccc56)C4=O)CC3)c(F)cc2c1=O [3j, 1-cyclopropyl-6-fluoro-7-[4-[4-[5-(1-naphthylmethylene)-2,4-dioxo-thiazolidin-3-yl]butanoyl]piperazin-1-yl]-4-oxo-quinoline-3-carboxylic acid]						39.8 ± 2.17 µM	23.5 ± 1.28 µM	
